Tests used:
DGAT-1 enzyme = biological target: T1, DGAT-1 enzyme (Homo sapiens, UniProt O75907); assay: DGAT-1 enzyme inhibition, phase partitioning assay (PPA), 96-well; type: biochemical; conditions: recombinant DGAT-1 produced in Sf9 insect cells; 1,2-di(cis-9-octadecenoyl)-sn-glycerol and octanoylCoA; read-out: IC50, concentration that inhibits 50% of the activity of DGAT-1
T1 construct: made in house; host or cells: Sf9 insect cells (baculovirus)
T1 sequence (O75907 1-488): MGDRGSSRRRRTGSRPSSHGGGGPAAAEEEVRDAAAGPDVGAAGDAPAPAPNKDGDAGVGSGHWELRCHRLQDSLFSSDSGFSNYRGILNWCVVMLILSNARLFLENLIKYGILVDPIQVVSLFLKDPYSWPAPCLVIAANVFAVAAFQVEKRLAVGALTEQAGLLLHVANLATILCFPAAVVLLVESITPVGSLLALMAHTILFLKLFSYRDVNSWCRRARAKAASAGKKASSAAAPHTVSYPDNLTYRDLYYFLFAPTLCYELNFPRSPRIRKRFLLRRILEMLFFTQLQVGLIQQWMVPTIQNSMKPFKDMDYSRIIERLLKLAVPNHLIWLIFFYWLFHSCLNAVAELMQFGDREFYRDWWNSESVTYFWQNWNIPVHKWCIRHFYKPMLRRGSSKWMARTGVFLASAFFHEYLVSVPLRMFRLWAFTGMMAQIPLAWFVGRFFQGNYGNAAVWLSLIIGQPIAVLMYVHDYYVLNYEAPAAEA
Procedure: The recombinant DGAT-1 protein was produced in Sf9 insect cells transfected with a baculovirus. The reaction was carried out by incubating the enzyme in the presence of 1,2-di(cis-9-octadecenoyl)-sn-glycerol and octanoylCoA. The amount of triacylglycerol formed during the reaction is measured. […] The radioactivity is measured using a MicroBeta counter (Perkin Elmer).

[1] = test system: triglyceride biosynthesis in Chang liver cells; assay: Inhibition of triglyceride biosynthesis in Chang liver cells ([14C] glycerol incorporation); conditions: read-out: inhibitory activity on triglyceride biosynthesis, concentration that inhibits 50% of the activity
Procedure: These trials consisted in measuring the in vitro inhibitory activity of the compounds of the invention on a cell test.
Chang liver cells at 80% confluence are detached with trypsin-EDTA, 4 ml per 175 cm^2 flask. After centrifugation at 1300×g for 5 minutes, the cell pellet is washed once with PBS and then resuspended in whole medium. The number of cells and their viability are determined on Mallassez cells via the exclusion method with trypan blue.
150 000 cells are inoculated per well into a 24-well plate for a minimum of 3 h in DMEM medium 4.5 g/l of glucose supplemented with 10% FCS and with antibiotics, and are maintained at 37° C. in an incubator with CO2 (5%).
After 3 h, the cells have adhered, the medium is removed and replaced overnight with DMEM medium 4.5 g/l of glucose with 2% of BSA/oleate.
Next, the cell membranes are destroyed by sonication on a water bath, for 30 minutes. […] The radioactivity is measured using a Flo One C625TR machine (Perkin-Elmer).
The inhibitory activity on triglyceride biosynthesis is given by the concentration that inhibits 50% of the activity.

Which results are given for `O=C(O)/C=C/[C@H]1CC[C@H](c2ccc(C(=O)Nc3nc(Cc4ccccc4)no3)cc2)CC1` [Compound 3c, (E)-3-{4-[4-(3-benzyl[1.2.4]oxadiazol-5-ylcarbamoyl)phenyl]cyclohexyl}acrylic acid]?
melting point: 210 °C; IC50 (DGAT-1 enzyme): 2210 nM

With `O=C(O)CC[C@H]1CC[C@H](c2ccc(C(=O)Nc3nc(Cc4ccccc4)no3)cc2)CC1` [Compound 3d, trans-3-{4-[4-(3-benzyl[1.2.4]oxadiazol-5-ylcarbamoyl)phenyl]cyclohexyl}propionic acid] as the compound, how does the melting point read?
Its melting point is 193 °C.

And the IC50 (DGAT-1 enzyme)?
Its IC50 is 927 nM.

Which melting point does the source give for `O=C(Nc1nc(COc2ccccc2)no1)c1ccc(O[C@H]2CC[C@@H](C(=O)O)CC2)cc1` [Compound 8, cis-4-[4-(3-phenoxymethyl[1.2.4]oxadiazol-5-ylcarbamoyl)phenoxy]cyclohexanecarboxylic acid] here?
The melting point was 210 to 212 °C.

What about the IC50 (DGAT-1 enzyme) of the same compound?
The IC50 was 94 nM.

What about the IC50 [1] of the same compound?
The IC50 was 319 nM.

Which melting point does the source give for `O=C(Nc1nc(C2(c3ccccc3)CC2)no1)c1ccc(O[C@H]2CC[C@@H](C(=O)O)CC2)cc1` [Compound 6, cis-4-{4-[3-(1-phenylcyclopropyl)[1.2.4]oxadiazol-5-ylcarbamoyl]phenoxy}-cyclohexanecarboxylic acid] here?
Its melting point is 215 to 222 °C.

What about the IC50 (DGAT-1 enzyme) of the same compound?
The IC50 was 3760 nM.

What does the source list for `O=C(Nc1nc(Cc2ccccc2)no1)c1ccc(C2CCC(C3CC3C(=O)O)CC2)cc1` (stereo not drawn) [Compound 3b, trans-2-{4-[4-(3-benzyl[1.2.4]oxadiazol-5-ylcarbamoyl)phenyl]cyclohexyl}cyclopropanecarboxylic acid]?
melting point: 187 °C; IC50 (DGAT-1 enzyme): 742 nM

Which IC50 (DGAT-1 enzyme) does the source give for `O=C(Nc1ccc(NC2CCCC2)nn1)c1ccc(O[C@H]2CC[C@@H](C(=O)O)CC2)cc1` [Compound 9, cis 4-[4-(6-cyclopentylaminopyridazin-3-ylcarbamoyl)phenoxy]-cyclohexanecarboxylic acid] here?
The IC50 was 51 nM.

With `O=C(O)CC1CCC(c2ccc(C(=O)Nc3ccc(Cc4ccccc4)nn3)cc2)CC1` (stereo not drawn) [Compound 3, {4-[4-(6-benzylpyridazin-3-ylcarbamoyl)phenyl]cyclohexyl}acetic acid] as the compound, how does the IC50 (DGAT-1 enzyme) read?
Its IC50 is 890 nM.

With `O=C(Nc1nc(Cc2ccccc2)no1)c1ccc(O[C@H]2CC[C@@H](C(=O)O)CC2)nc1` [Compound 10, cis-4-[5-(3-benzyl[1.2.4]oxadiazol-5-ylcarbamoyl)pyridin-2-yloxy]-cyclohexanecarboxylic acid] as the compound, how does the melting point read?
The melting point was 205 to 210 °C.

And the IC50 (DGAT-1 enzyme)?
Its IC50 is 81 nM.

With `CC(C)(c1ccccc1)c1noc(NC(=O)c2ccc(O[C@H]3CC[C@@H](C(=O)O)CC3)cc2)n1` [Compound 7] as the compound, how does the melting point read?
Its melting point is 250 to 255 °C.

What about the IC50 (DGAT-1 enzyme) of the same compound?
Its IC50 is 5700 nM.

For `COc1ccc(-c2ccc(NC(=O)c3ccc(O[C@H]4CC[C@@H](C(=O)O)CC4)cc3)nn2)cc1` [Compound 12, cis-4-{4-[6-(4-methoxyphenyl)pyridazin-3-ylcarbamoyl]phenoxy}-cyclohexanecarboxylic acid], which melting point is on record?
Its melting point is 319 to 322 °C.

What about the IC50 (DGAT-1 enzyme) of the same compound?
The IC50 was 7180 nM.

For `O=C(Nc1ccc(Nc2ccccc2)nn1)c1ccc(O[C@H]2CC[C@@H](C(=O)O)CC2)cc1` [Compound 11, cis-4-[4-(6-phenylaminopyridazin-3-ylcarbamoyl)phenoxy]cyclohexanecarboxylic acid], which melting point is on record?
The melting point was 259 to 261 °C.

And the IC50 (DGAT-1 enzyme)?
The IC50 was 5910 nM.
